Entries after “also recorded” stand apart in the source; their conditions may differ.
Columns and labels:
p110δ = molecular target: T1, p110δ (Homo sapiens, UniProt O00329); assay: Chick embryo fibroblast (CEF) transformation assay, p110δ; assay type: cell-based; details: read-out: EC-50 for inhibition of functional activity of p110δ
T1 construct: expressed in transfected cells; host or cells: chick embryo fibroblasts (CEF), viral transduction
Description: Moreover, compound I has comparatively low activity on p110α in a cell-transformation system designed to measure functional activity of these kinases, but is a potent inhibitor of both p110β and p110δ in that assay. See Example 1. This chick embryo fibroblast (CEF) transformation system has been reported as a useful way to assess the functional activity of the PI3K signaling pathway. Denley, et al., “Oncogenic signaling of class I PI3K isoforms,” Oncogene, vol. 27(18), 2561-74 (2008). Transformation of CEF cells in the assay depends upon functional kinase activity. Kang, et al., Proc. Nat'l Acad. Sci. USA, vol. 103(5), 1289-94 (2006). The readout of this assay is based on the frequency of transformation of CEF cells exposed to viral vectors carrying a specific p110 isoform of interest.
Chick embryo fibroblasts (CEF) are transduced with viral stocks with versions of the human genes for the individual PI3K isoforms p110α, p110β, p110δ and p110γ. These transduced CEF lines are then plated in a growth medium where oncogenically transformed cells form foci that can then be stained and counted. […] Denley A, Kang S, Karst U and Vogt PK, “Oncogenic signaling of class 1 PI3K isoforms.” Oncogene (2008) 27: 2561-2574. FIG. 3 illustrates the readout of this assay.

p110α = molecular target: T2, p110α (Mus musculus, UniProt P42337); assay: Cell-based p110α assay: PDGF-stimulated Akt phosphorylation in SW3T3 cells
T2 construct: endogenous in cells; host or cells: SW3T3 cells
Experimental: The p110α assay used SW3T3 cells stimulated by PDGF, and p110 kinase activity was measured by Akt phosphorylation. The p110β activity was measured by lysophosphatidic acid stimulation of Akt phosphorylation in mouse embryonic fibroblasts. The activity of p110δ was measured by anti-FcεR1 antibody cross linking stimulation of CD63 movement to the surface of basophils. Finally, the activity of p110γ was measured by fMLP stimulation of CD63 antigen movement to the cell surface of basophils.

OVCAR-3 xenografts = assay: Ovarian cancer cell xenografts in nu/nu mice (FIG. 8); assay type: in vivo; details: 30 mg/kg BID, 36 days, female nu/nu mice
Experimental: Female nu/nu mice bearing OVCAR-3 xenografts (human ovarian cancer cells) were maintained until tumor volume measured about 100 mm^3. At that point, treatment began with compound I at a rate of 30 mg/kg administered twice per day.

[1] = Half-life in vivo in rats
Description: Treatments of the invention typically involve administration of compound Ito a subject in need of treatment on a daily basis for at least one week or more than one week, often for 2-4 weeks, and sometimes for 1-3 months or more. The half-life of Compound I in vivo in mice and rats is several hours—see FIG. 6. It is thus sometimes desirable to administer compound I in multiple doses each day, in order to maintain efficacious plasma levels over a prolonged period of time. Administration may be done in two doses per day, or three doses per day, or in some embodiments, four doses per day or more, particularly when Compound I is administered orally. Alternatively, Compound I can be administered intravenously at a rate that maintains an efficacious plasma level for a prolonged period of time. Suitably, it would be administered at a rate to achieve a plasma level of at least about 1 micromolar, or at least 3 micromolar, or at least 5 micromolar.

[2] = tested on: NCI panel cancer cell lines; assay: NCI panel of tumor cell assays, summary over cell lines; assay type: cell-based; details: for Cell line number: GI50 less than 2 micromolar
Description: Compound I has also been tested in a battery of tumor cell assays known as the NCI panel. […] Using this measure, 1.8% of cell lines were particularly sensitive to Compound B at this level, while 39% were particularly sensitive to Compound I at the same concentration. […] Loss of PTEN activity often occurs in cancers, and enhances the sensitivity of a tumor to PI3K inhibitors. […] The following Table summarizes the cell lines found to be sensitive to Compound I and the known mutations in those cell lines.

NCI-H23 = assay: NCI panel growth inhibition, NCI-H23; assay type: cell-based; details: Homo sapiens, Non-Small Cell Lung Cancer
Description: (§1) Compound I has also been tested in a battery of tumor cell assays known as the NCI panel.

NCI-H322M = assay: NCI panel growth inhibition, NCI-H322M; assay type: cell-based; details: Homo sapiens, Non-Small Cell Lung Cancer
Description: as §1

NCI-H460 = assay: NCI panel growth inhibition, NCI-H460; assay type: cell-based; details: Homo sapiens, Non-Small Cell Lung Cancer
Description: as §1

NCI-H522 = assay: NCI panel growth inhibition, NCI-H522; assay type: cell-based; details: Homo sapiens, Non-Small Cell Lung Cancer
Description: as §1

HCC-2998 = assay: NCI panel growth inhibition, HCC-2998; assay type: cell-based; details: Homo sapiens, Colon Cancer
Description: as §1

SNB-19 = assay: NCI panel growth inhibition, SNB-19; assay type: cell-based; details: Homo sapiens, CNS Cancer
Description: as §1

U251 = assay: NCI panel growth inhibition, U251; assay type: cell-based; details: Homo sapiens, U-251, CNS Cancer
Description: as §1

MALME-3M = assay: NCI panel growth inhibition, MALME-3M; assay type: cell-based; details: Homo sapiens, Melanoma
Description: as §1

M14 = assay: NCI panel growth inhibition, M14; assay type: cell-based; details: Homo sapiens, Melanoma
Description: as §1

SK-MEL-5 = assay: NCI panel growth inhibition, SK-MEL-5; assay type: cell-based; details: Homo sapiens, Melanoma
Description: as §1

OVCAR-3 = assay: NCI panel growth inhibition, OVCAR-3; assay type: cell-based; details: Homo sapiens, Ovarian
Description: as §1

OVCAR-5 = assay: NCI panel growth inhibition, OVCAR-5; assay type: cell-based; details: Homo sapiens, Ovarian
Description: as §1

SK-OV-3 = assay: NCI panel growth inhibition, SK-OV-3; assay type: cell-based; details: Homo sapiens, Ovarian
Description: as §1

786-0 = assay: NCI panel growth inhibition, 786-0; assay type: cell-based; details: Homo sapiens, Renal
Description: as §1

TK-10 = assay: NCI panel growth inhibition, TK-10; assay type: cell-based; details: Homo sapiens, Renal
Description: as §1

BT-549 = assay: NCI panel growth inhibition, BT-549; assay type: cell-based; details: Homo sapiens, Breast Cancer
Description: as §1

T2 sequence (P42337 whole entry): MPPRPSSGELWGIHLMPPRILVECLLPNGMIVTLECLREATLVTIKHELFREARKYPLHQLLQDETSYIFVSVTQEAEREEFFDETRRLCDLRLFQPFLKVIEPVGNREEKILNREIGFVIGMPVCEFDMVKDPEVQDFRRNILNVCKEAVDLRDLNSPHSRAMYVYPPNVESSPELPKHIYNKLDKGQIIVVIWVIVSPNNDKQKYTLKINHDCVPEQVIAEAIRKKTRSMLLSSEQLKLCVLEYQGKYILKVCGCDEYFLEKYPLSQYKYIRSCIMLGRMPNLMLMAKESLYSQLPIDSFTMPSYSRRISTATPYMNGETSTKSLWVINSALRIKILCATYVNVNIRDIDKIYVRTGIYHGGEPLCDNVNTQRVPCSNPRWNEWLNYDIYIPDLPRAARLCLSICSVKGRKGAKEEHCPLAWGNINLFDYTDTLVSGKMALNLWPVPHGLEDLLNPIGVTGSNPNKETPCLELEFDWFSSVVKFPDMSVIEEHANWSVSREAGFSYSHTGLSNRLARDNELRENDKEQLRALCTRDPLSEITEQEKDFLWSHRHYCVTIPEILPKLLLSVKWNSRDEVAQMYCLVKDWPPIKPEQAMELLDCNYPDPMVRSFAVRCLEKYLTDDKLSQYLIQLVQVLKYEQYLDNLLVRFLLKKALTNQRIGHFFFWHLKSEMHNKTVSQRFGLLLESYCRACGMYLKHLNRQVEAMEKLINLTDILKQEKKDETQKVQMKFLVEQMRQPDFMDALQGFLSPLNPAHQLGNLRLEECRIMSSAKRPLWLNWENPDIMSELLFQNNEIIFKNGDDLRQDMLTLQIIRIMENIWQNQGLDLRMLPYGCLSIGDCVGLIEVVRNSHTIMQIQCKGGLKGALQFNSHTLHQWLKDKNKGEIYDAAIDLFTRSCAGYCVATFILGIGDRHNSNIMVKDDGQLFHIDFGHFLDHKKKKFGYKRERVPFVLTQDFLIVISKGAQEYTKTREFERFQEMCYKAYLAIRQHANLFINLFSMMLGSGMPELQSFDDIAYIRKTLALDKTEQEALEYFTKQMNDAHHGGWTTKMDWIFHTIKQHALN
T2 sequence (P26450 whole entry partner): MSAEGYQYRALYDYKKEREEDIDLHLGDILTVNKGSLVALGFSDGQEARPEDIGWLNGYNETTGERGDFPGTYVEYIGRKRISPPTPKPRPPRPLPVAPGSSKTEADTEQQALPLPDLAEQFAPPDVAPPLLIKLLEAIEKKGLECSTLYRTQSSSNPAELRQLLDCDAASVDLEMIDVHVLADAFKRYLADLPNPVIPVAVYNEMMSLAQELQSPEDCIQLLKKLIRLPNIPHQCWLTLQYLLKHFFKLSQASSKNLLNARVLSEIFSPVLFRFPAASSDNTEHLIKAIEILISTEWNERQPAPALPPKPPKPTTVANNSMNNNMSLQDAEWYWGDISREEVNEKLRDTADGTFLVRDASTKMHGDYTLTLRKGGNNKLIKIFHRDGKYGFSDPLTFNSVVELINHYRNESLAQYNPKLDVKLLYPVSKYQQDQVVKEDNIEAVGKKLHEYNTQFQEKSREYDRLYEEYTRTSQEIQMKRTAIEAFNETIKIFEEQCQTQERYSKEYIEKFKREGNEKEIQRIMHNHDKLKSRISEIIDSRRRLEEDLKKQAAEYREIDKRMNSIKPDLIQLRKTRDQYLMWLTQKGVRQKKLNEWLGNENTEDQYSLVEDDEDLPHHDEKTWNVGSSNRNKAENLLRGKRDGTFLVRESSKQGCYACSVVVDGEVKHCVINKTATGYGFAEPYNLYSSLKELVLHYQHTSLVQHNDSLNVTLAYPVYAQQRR
T1 sequence (O00329 whole entry): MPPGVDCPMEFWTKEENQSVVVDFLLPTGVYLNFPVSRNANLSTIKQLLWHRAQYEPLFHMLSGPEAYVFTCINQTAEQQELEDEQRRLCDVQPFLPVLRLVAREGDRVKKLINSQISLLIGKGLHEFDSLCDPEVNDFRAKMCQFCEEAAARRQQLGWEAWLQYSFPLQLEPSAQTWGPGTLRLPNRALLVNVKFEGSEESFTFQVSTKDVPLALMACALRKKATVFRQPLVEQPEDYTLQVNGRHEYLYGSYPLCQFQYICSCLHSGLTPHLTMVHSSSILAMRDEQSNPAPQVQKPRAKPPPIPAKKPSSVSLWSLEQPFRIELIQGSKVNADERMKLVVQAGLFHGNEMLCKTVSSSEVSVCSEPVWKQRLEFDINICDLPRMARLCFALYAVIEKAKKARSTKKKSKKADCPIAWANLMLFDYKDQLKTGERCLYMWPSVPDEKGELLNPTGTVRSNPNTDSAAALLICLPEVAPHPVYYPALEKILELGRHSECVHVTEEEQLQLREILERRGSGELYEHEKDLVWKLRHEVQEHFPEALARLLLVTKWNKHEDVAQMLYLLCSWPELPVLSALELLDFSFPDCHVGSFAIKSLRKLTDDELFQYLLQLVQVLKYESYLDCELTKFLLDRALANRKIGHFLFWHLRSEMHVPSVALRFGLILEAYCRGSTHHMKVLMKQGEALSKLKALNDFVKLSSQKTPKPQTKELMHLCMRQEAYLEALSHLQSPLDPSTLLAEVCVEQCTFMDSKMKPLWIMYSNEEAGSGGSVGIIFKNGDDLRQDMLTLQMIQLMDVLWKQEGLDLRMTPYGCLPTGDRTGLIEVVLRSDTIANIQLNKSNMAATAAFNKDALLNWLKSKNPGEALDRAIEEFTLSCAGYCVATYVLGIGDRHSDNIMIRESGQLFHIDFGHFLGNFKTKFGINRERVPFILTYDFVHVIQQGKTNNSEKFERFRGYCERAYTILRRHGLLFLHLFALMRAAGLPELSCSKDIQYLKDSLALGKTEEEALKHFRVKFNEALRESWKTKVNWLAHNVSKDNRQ

## C[C@H](Nc1ncnc2[nH]cnc12)c1nc2ccc(F)cc2c(=O)n1-c1ccccc1 [Compound I]
p110δ
  EC50: ~0.015 µM
p110α
  EC50: > 20 µM
OVCAR-3 xenografts
  Tumor volume of OVCAR-3 xenograft: the size of the existing tumor was actually reduced; also recorded: completely inhibited growth; also recorded: Tumor volume actually decreased
[1]
  Half-life in vivo: several hours
[2]; Breast
  % EC50 < 2 μM: 62%
  Cell line number: 5/8
[2]; CNS
  % EC50 < 2 μM: 50%
  Cell line number: 3/6
[2]; Colon
  % EC50 < 2 μM: 14%
  Cell line number: 1/7
[2]; Melanoma
  % EC50 < 2 μM: 12%
  Cell line number: 1/8
[2]; NCI panel cell lines known to have PTEN mutations
  Cell lines with mutations in PTEN inhibited: 70%
[2]; NSCLC
  % EC50 < 2 μM: 11%
  Cell line number: 1/9
[2]; Ovarian
  % EC50 < 2 μM: 33%
  Cell line number: 2/6
[2]; Prostate
  Cell line number: 2/2
[2]; Prostrate
  % EC50 < 2 μM: 100%
[2]; Renal
  % EC50 < 2 μM: 75%
  Cell line number: 6/8
[2]; all NCI panel cell lines
  Cell lines particularly sensitive (GI50 of 2 micromolar or less): 39%
NCI-H23
  GI50: 100 µM
NCI-H322M
  GI50: 10.5 µM
NCI-H460
  GI50: 25.7 µM
NCI-H522
  GI50: 51.8 µM
HCC-2998
  GI50: 32.4 µM
SNB-19
  GI50: 19.3 µM
U251
  GI50: 59.6 µM
MALME-3M
  GI50: 4.58 µM
M14
  GI50: 88.9 µM
SK-MEL-5
  GI50: 31.3 µM
OVCAR-3
  GI50: 0.316 µM
OVCAR-5
  GI50: 27.7 µM
SK-OV-3
  GI50: 4.02 µM
786-0
  GI50: 1.99 µM
TK-10
  GI50: 1.24 µM
BT-549
  GI50: 0.538 µM
